Assay results as given in US7632862B2, “Pharmaceutical compositions that modulate HPTPbeta activity” (Procter & Gamble Company, priority 2002, dated 2009).

Key:
[1] = tested on: HUVEC; assay: In-cell phosphatase activity (DiFMUP) in HPTPbeta adenovirus infected HUVECs; type: cell-based, human; conditions: 500 μM
Procedure: In cell phosphatase assays are accomplished by infecting Human Umbilical Vein Endothelial Cells with HPTPbeta, GFP, or Empty adenovirus in 100 mm dishes for 24 hours. Infected cells were trypsinized and re-plated at 5,000 cells/well in a 96 well plate and allowed to attach for 2 hours in complete growth medium (EGM). Complete medium was replaced with Hanks Buffered Saline (HBSS, Gibco) and substrate fluorescence are measured 15 minutes after the addition of 100 uM DiFMUP substrate (Molecular Probes) using a Victor V plate reader as mentioned in Example 2.

[2] = tested on: HEK293H cells; assay: In-cell phosphatase activity (DiFMUP) in HPTPbeta-transfected HEK293H cells; type: cell-based, human; conditions: 500 μM, 15 minutes pre-incubation
Procedure: For phosphatase activity in human embryonic kidney cells, HEK293H (Gibco) are grown in suspension in 293SFM media (Gibco) and transfected on 100 mm dishes using LIPOFECTAMINE™ 2000 (Invitrogen), a proprietary formulation for the transfection of nucleic acids (DNA and RNA) into eukaryotic cells. After 24 hours cells are resuspended transferred back to shaker flasks for an additional 24 hours. Phosphatase activity is measured using DiFMUP in 96 well plates as above with 100,000 cells/well. For inhibition of tyrosine phosphatases, the cells are pre-incubated with Bis-maloalto-organovanadium (BMOV) for 15 minutes prior to the addition of DIFMUP. HPTPbeta protein expression is confirmed after each experiment in parallel plates by western blotting.

[3] = tested on: panel of recombinant phosphatases; assay: Selectivity against a panel of recombinant phosphatases; type: biochemical; conditions: all panel phosphatases except the closely related HPTPeta
Procedure: FIG. 10. Compound 1 ((R)-[1-Methylcarbamoyl-2-(4-sulfoamino-phenyl)-ethyl]-carbamic acid tert-butyl ester) is a selective HPTPbeta inhibitor. Compound 1 was assayed for inhibition of a panel of recombinant phosphatases essentially as described in Example 2 for HPTPbeta. This compound was at least 10 fold selective for HPTPbeta over the other phosphatases tested except for the closely related HPTPeta.
Methods: The potency of a class of HPTPbeta inhibitors was optimized by iterative screening for inhibition of HPTPbeta activity measured as described in Example 2. […] To determine selectivity, compound 1 was tested against a panel of several other recombinant phosphatases (FIG. 10). VEGFR2 and Tie-2 receptor activation was assayed as mentioned in example 4. However, to assess the effect of the HPTPbeta inhibitor, the cells were pretreated for 30 minutes prior to stimulation with either 0.1 mM or 1 mM Compound 1 in Opti-MEM media (Invitrogen) at 37° C./5% CO2. Results: A potent and selective HPTPbeta inhibitor (Compound 1) was developed (see Example 11) as an agent to enhance the activation of VEGFR2 and Tie2 (FIG. 10). Compound was at least 10 fold selective for HPTPbeta versus the any of the other phosphatases except for the closely related HPTPeta. […] Clearly, these assays could be used to optimize the potency and selectivity and to test the efficacy of other HPTPbeta inhibitors.

[4] = tested on: VEGFR2; assay: Ligand-induced VEGFR2 phosphorylation in endothelial cells (anti-phosphotyrosine western blot); type: cell-based, human; conditions: endothelial cells pretreated 30 minutes with 0.1 mM or 1 mM; vs vehicle; p<0.05
Procedure: (§1) VEGFR2 and Tie-2 receptor phosphorylation is assayed by anti-phosphotyrosine western blotting following immunoprecipitation of the receptors from endothelial cells or receptor transfected 293 cells. Briefly, endothelial cells (HUVEC's) are plated on 100 mm dishes, stimulated with a dose range of either recombinant VEGF165 or recombinant Angiopoietin-1 (R&D Systems, resuspended in PBS containing 0.2% bovine serum albumin) for 5 or 7 minutes, respectively. […] Signal is detected using HRP labeled secondary antibodies and ECL solution (Amersham). […] Resulting films are scanned and quantitated using Quantity-One software (Bio-Rad) and results reported as the amount of phosphotyrosine signal over receptor signal (P-Tyr/Receptor).
(§2) Transfection in HUVEC's is performed with the above-mentioned antisense oligos at a 200 nM final concentration using LIPOFECTIN™ (Invitrogen), a reagent for transfectin of endothelial cells and transfection of DNA or RNA into cell lines, in OPTIMEM™-I (Gibco), a modification of Eagles Minimum Essential Medium, buffered with HEPES and sodium bicarbonate (2.4 g/L) and supplemented with hypoxanthine, thymidine, sodium pyruvate, L-glutamine, trace elements, and growth factors, according to the manufacturers instructions. […] Uptake efficiency is monitored in every transfection using a fluorescently labeled oligonucleotide and determined to be >90% in every experiment.” […]

[5] = tested on: Human umbilical vein endothelial cells (HUVEC); assay: Endothelial cell survival (CellTiter-Glo); type: cell-based; conditions: 500 μM compound
Procedure: Methods: Human umbilical vein endothelial cells (HUVEC, Clonetics) were seeded at 10,000/well in a 96-well plate for 2 hours in EGM media (Clonetics). The cells were then serum-deprived for 2 hours in DMEM (Invitrogen) supplemented with 0.2% bovine serum albumin. Quadruplicate wells were then treated with either vehicle or 500 μM Compound in the presence or absence of either 500 pM recombinant human VEGF165 or 250 ng/mL recombinant human Angiopoietin-1 (Ang-1) (R&D Systems) for 72 hours in DMEM supplemented with 0.2% bovine serum albumin. Cells remaining after incubation were detected using the CellTiter-Glo™ System according to the manufacturers instructions (Promega) and measured using a Victor V plate reader (Perkin Elmer/Wallac).

[6] = target: T1, HPTPbeta (Homo sapiens, UniProt P23467); assay: Inhibition of recombinant HPTPbeta phosphatase activity (DiFMUP substrate); type: biochemical; conditions: assay as in Example 2
T1 construct: GST (N, cleaved yes); His6 (C); made in house; host or cells: E. coli BL21-RIL
T1 sequence (P23467 with tags, fused parts or gaps): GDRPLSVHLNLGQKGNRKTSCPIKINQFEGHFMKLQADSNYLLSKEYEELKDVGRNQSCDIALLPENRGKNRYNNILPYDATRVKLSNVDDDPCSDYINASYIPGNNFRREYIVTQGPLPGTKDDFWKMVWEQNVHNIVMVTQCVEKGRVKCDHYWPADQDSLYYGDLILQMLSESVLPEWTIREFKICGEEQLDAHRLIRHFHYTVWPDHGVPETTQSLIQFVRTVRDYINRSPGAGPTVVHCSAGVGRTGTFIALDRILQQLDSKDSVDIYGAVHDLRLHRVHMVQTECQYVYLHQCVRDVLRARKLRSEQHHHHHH
Procedure: Methods: Expression and purification of recombinant HPTPbeta catalytic domain [SEQ ID NO: 16] is accomplished by subcloning the intracellular domain of HPTPbeta (cDNA clone starting at the codon for amino acid 1662 through the stop codon) into the pGEX4T1 vector (Pharmacia) and expressed as a GST-fusion protein in E. coli BL21-RIL cells (Stratagene). Induced cells are thawed on ice and resuspended in 20 mM Tris-HCl, pH=8.0, 1% Trition x-100, 2 mM DTT and EDTA-free protease inhibitor cocktail. 10 mg/ml lysozyme is added and cells are lysed by sonication. The cell debris is pelleted using the Beckman J2-MI at 17,000 rpm. The supernatant is added to prepared glutathione sepharose 4B resin batch method. After binding, the column is poured and packed with the resin/protein mixture and then washed. […]
Measurements of recombinant phosphatase activity are performed using the substrate DiFMUP (6,8-difluoro-4-methylumbelliferyl phosphate) from Molecular Probes. […] Measurements of increased substrate fluorescence, indicative of phosphatase activity, are observed at an excitation wavelength of 355 nm and an emission wavelength of 460 nm using a Victor V plate reader (Wallac).
Methods: The potency of a class of HPTPbeta inhibitors was optimized by iterative screening for inhibition of HPTPbeta activity measured as described in Example 2. […]

[7] = tested on: Rat thoracic aortic rings; assay: Rat aortic ring explant angiogenesis assay; conditions: 100 μM and 300 μM; p<0.05 vs control
Procedure: Methods: The isolated rat aortic ring model of angiogenesis is performed using the thoracic aorta from 150-175 gram, male Sprague-Dawley rats (Charles River). The excised thoracic aorta is placed in sterile saline solution and transferred to endothelial basal media (EBM, Clonetics) containing 1% antibiotics/antimycotic (Gibco BRL). Periadventitial fibroadipose tissue and any visible blood clots were removed. Aortas are cross-sectioned at ˜1 mm intervals and the resulting tissues placed in 100 μl of Dulbecco's Modified Eagle Medium (DMEM) containing 2% FBS, in the presence or absence of adenovirus for green fluorescent protein, empty virus or HPTPbeta (all at 1.0×10^11 virus particles/ml), as described. Rings are incubated for 30 minutes at 37° C. in a humidified incubator under a constant 5% CO2 atmosphere. Following adenoviral infection, aortic rings were washed with EBM and placed in a 24-well tissue culture plate. Aortic rings are overlaid with 450 μl of collagen solution consisting of 8 volumes of 3 mg/ml rat tail collagen (Sigma) in 0.1% acetic acid, 1 volume of 10× M-199 supplemented with 100 mg/ml L-glutamine, and 1 volume of 10× collagen buffer (0.0SN NaOH, 200 mM HEPES, 260 mM NaHCO3). […] Images (TIFF) are taken using a SPOT camera connected to a Nikon inverted microscope and analyzed (vessel extent and area) using automated image analysis software. […]

[8] = tested on: Tie-2; assay: Ligand-induced Tie-2 phosphorylation in endothelial cells (anti-phosphotyrosine western blot); type: cell-based, human; conditions: endothelial cells pretreated 30 minutes with 0.1 mM or 1 mM; vs vehicle; p<0.05
Procedure: as §1, §2

Compound | phosphatase activity in HUVEC's [1] | phosphatase activity in HEK293H cells [2] | selectivity for HPTPbeta over the other phosphatases tested [3] | ligand stimulated tyrosine phosphorylation of VEGFR2 [4] | cell survival with VEGF165 stimulation ([5]; 500 pM VEGF165, 72 hours, vs vehicle) | cell survival with Ang-1 stimulation ([5]; 250 ng/mL Ang-1, 72 hours, vs vehicle) | basal cell survival ([5]; no ligand, vs untreated controls) | potency of inhibition of HPTPbeta activity [6] | vessel area [7] | vessel extent [7] | ligand stimulated tyrosine phosphorylation of Tie-2 [8]
Cc1occc(=O)c1[O-].Cc1occc(=O)c1[O-].[O]=[V+2] [BMOV, Bis-maloalto-organovanadium] | inhibited | inhibited | – | – | – | – | – | – | – | – | –
CNC(=O)C(Cc1ccc(NS(=O)(=O)O)cc1)NC(=O)OC(C)(C)C (stereo in doubt) [Compound 1, (R)-[1-Methylcarbamoyl-2-(4-sulfoamino-phenyl)-ethyl]-carbamic acid tert-butyl ester] | – | – | at least 10 fold | increased | increased cell survival | increased cell survival | increased basal levels of survival | nanomolar | significant increases | significant increases | increased
